What all share (assay type): in vivo
One data set relates to avocados. The procedure:
Example 11. The ripening characteristics of avocados exposed to AITC vapor was analyzed. Treatment groups consisted of avocados that were: exposed to the vapor of 125 μL of AITC in a Petri dish for 30 min and 18 hours; exposed to the vapor of 500 μL of AITC for 30 minutes and 18 hours; untreated and kept 18 hours in a bin; and treated with a coating agent. Two sets of the preceding test groups were studied. One set was treated when cold along with coated fruit (i.e., fruit treated with a coating agent (95 wt % glyceryl monostearate and 5 wt % sodium stearate) and another set was treated when warm (one day out of cold storage). Daily measurements were made of respiration and firmness (using a durometer). At the start of the test, the avocados were placed in cold storage. After one day, the cold treated avocados were treated with AITC directly after removal from cold storage. The coated group was treated at this time. The warm treated avocados were allowed to warm to room temperature. On the second day, measurements were begun on the cold treated avocados and AITC treatments began on the warm treated samples. On the third day, measurements began on the warm treated groups. […]
Example 23: The ripening characteristics of avocados exposed to AITC vapor, a coating agent (95 wt % glyceryl monostearate and 5 wt % sodium stearate), and AITC plus the coating agent was analyzed. […]

The subject of another data set is Botrytis cinerea (Bc). The experiment in a line: Antifungal activity of vapor against Botrytis cinerea in grapes. The note with it: vapor of 3 mL in a Petri dish for 72 hours. The procedure:
Example 12. The antifungal activity of AITC and DADS vapor against Botrytis cinerea (Bc) in grapes was tested. All samples were wounded by making a 3 mm deep puncture in the skin. Samples were infected by dispensing 1000 Bc spores suspended in 10 μL of water in the wound. The test groups consisted of grapes that were: uninfected and untreated; infected and untreated; exposed to the vapor of 3 mL of AITC in a Petri dish for 72 hours; and exposed to the vapor of 3 mL of DADS in a Petri dish for 72 hours. FIG. 17 quantifies the infection results. […] Both AITC and DADS vapor were effective at controlling Bc mold. Treatment with AITC can potentially lead to changes in color or flavor of the grapes.

Data set [1] relates to Penicillium digitatum (Pd). The experiment in a line: Antifungal activity of vapor against Penicillium digitatum in wounded, infected mandarins. The conditions noted are these: for effect on Pd mold: airtight container, assessed after 6 days. The method, then:
Example 4. The antifungal activity of a range of AITC vapor concentrations was tested against Pd in mandarins. All mandarins were wounded by puncturing with a screw and infected by dispensing 1000 Pd spores suspended in 10 μL of water in each wound. The fruit was then placed in an airtight container, a range of AITC volumes were disposed onto a Whatman filter paper disc, the disc was suspended in front of a battery-powered fan, and the container closed for 18 hours. The mandarins were then left at ambient temperature and high humidity for 6 days. The test groups were mandarins that were infected and untreated, and infected and treated with 62.5 μL, 125 μL, 250 μL, and 500 μL on the filter paper disc. […] FIG. 6 is a bar graph showing incidence (% infected) for the test groups.
Example 5. The antifungal activity of a range of AITC vapor exposure times was tested to determine the effects against Pd in mandarins. All samples were wounded by puncturing with a screw. Mandarins were infected by dispensing 1000 Pd spores suspended in 10 μL of water in the wound. The fruit was then placed in an airtight container, 125 μL of AITC was dispensed onto a Whatman filter paper disc, the disc suspended in front of a battery-powered fan, and the container closed for 15 minutes to 2 hours. The test groups were then left at ambient temperature, high humidity, and assessed for Pd mold after 6 days. The test groups consisted of mandarins that were: uninfected and untreated; infected and untreated; infected and treated with 0.5 g/L imazalil; infected, treated with 125 μL of AITC on the filter paper, and exposed to the vapor for 15 minutes, 30 minutes, 1 hour, and 2 hours.

Another data set relates to mold. In words: Mold growth on produce exposed to AITC in an airtight bin (general description). The note with it: for effect on mold growth on the produce: AITC concentration of 1000 ppm, airtight bin. The method, then:
The plurality of produce items is contacted with the antimicrobial agent for a length of time in a range of 1 minute to 100 hours (e.g., 10 minutes to 1 hour). The length of time is dependent on a variety of factors, such as type of produce, target pathogen, and the degree to which the enclosure is sealed. Examples include exposure times between 15 minutes and 96 hours for allyl isothiocyanate (AITC) in an airtight bin. […] Lower antimicrobial agent concentrations with longer exposure times or higher antimicrobial concentrations with shorter exposure times can also be used. For example, the plurality of produce items is contacted with the antimicrobial agent for a length of time in a range of 15 minute to 72 hours.
A concentration of the antimicrobial agent in the headspace of the enclosure is typically in a range of about 20 parts per million by volume (ppmv) to about 5000 ppmv (e.g., about 550 ppmv to about 4800 ppmv, or about 25 ppmv to about 1250 ppmv). Depending on type of produce and exposure time in the enclosure, antimicrobial agent concentrations greater than about 2200 ppmv can sometimes damage the produce. […] In some embodiments, the antimicrobial agent is provided in a concentration to the enclosure in a headspace at least about 1200 ppmv, at least about 1250 ppmv, or about 1250 ppmv to about 5000 ppmv, or about 1250 ppmv to about 4900 ppmv.

[2] abbreviates: mandarins, 72 hours vapor of 3 mL in a Petri dish.

SMILES strings stand for the structures.

Results on two compounds are retold here after patent publication US20250204541A1, “GAS PHASE TREATMENT OF PRODUCE” (priority 2022, published 2025).

Regarding `C=CCN=C=S` [AITC, allyl isothiocyanate], in the data set with avocados (Example 23, avocados, vapor of 500 μL, 11 days of incubation), the “quality and defects of treated avocados” value is “higher quality and had fewer defects than the untreated avocados and the avocados treated with the coating agent alone”. In the data set on avocados (in vivo), the “effect on avocado peel and firmness” value was “darkening and thickening of the avocado peel and a prolonged feeling a firmness”. The “effect on Bc mold” value in the data set on Botrytis cinerea (Bc) is listed as “substantially eliminated Bc mold”. In data set [1] (mandarins infected with Pd, 72 hours vapor of 3 mL in a Petri dish), the “inhibition of fungal growth” value is listed as “approximately 100%”. The “effect on Pd mold” value in data set [1] (mandarins, 125 μL on filter paper (730 ppm), 30 min exposure) was “greatly reduced severity of Pd mold infection”; in data set [1] (mandarins, 125 μL on filter paper, 15 minute exposure), “little effect on Pd mold”; in data set [1] (mandarins, 125 μL on filter paper, 1 hour exposure), “greatly reduced severity and incidence of Pd mold”. Also, the “effect on Pd infection” value in data set [1] (mandarins, 125 μL on filter paper disc, airtight container with fan, 18 hours, then 6 days) was “substantially prevented the growth mold”; in data set [1] (mandarins, 250 μL on filter paper disc, airtight container with fan, 18 hours, then 6 days), “substantially prevented the growth mold”; in data set [1] (mandarins, vapor of 500 μL in a Petri dish for 72 hours), “substantially prevented Pd infections”. Besides, in data set [1] (setting [2]), the “effect on Pd infection / mold growth” value is recorded as “substantially prevented”. Also, the results for the “effect on mold growth on the produce” value in the data set on mold (exposure time of 15 minutes) and in the data set with mold (exposure time of 30 min or longer) were “slowed mold growth on the produce” and “showed good efficacy”, respectively. Moreover, the “effect on mold growth” value with mold (AITC concentrations in a range of 550 ppmv to 4800 ppmv) is on record as “some inhibitory effect on mold growth”; in the data set on mold (AITC concentrations over 1000 ppmv) it was “tended to be completely inhibitory”.

Regarding `C=CCSSCC=C` [DADS, diallyl disulfide], the “effect on Bc mold” value with Botrytis cinerea (Bc) was “substantially eliminated Bc mold”. In addition, the “effect on Pd infection / mold growth” value in data set [1] (setting [2]) is on record as “substantially prevents Pd mold growth”. Further, the “reduction of the incidence of Pd mold compared to the untreated samples” value in data set [1] (mandarins, exposed for 72 hours to the vapor of 3 mL in a Petri dish) came to 85%.
